Marks after values point to notes of the source that are not given here.
Tested on: adriamycin-induced myocardial injury model in rat
Experiment: Protective effects on adriamycin-induced myocardial injury model in rat
Assay type: in vivo, Wistar rats
From the text: Coenzyme Q10 can reduce the cardiotoxicity induced by adriamycin. In this experiment, to adriamycin-induced myocardial injury model in rat was constructed for detecting the effects of coenzyme Q10 nanoemulsion of protecting rats from adriamycin-induced myocardial injury.
40 Wistar rats (250±15 g, F/M=1:1) were randomly divided into five groups (8 animals each group): negative control group, ADM group, ADM+coenzyme Q10 (low dosage) group, ADM+coenzyme Q10 (medium dosage) group and ADM+coenzyme Q10 (high dosage) group. The control group received intraperitoneal injection of physiological saline at 10 mL/kg/d for 9 days. The ADM group received intraperitoneal injection of ADM at 3 mg/kg every other day for 5 times in total (9 days). The ADM+coenzyme Q10 (low, medium and high dosages) groups respectively received tail vein injection of coenzyme Q10 at 1.5, 3.0 and 6.0 mg/kg/d for 9 days, and ADM was administered at 3 mg/kg every other day for 5 times in total (9 days) (10 min after coenzyme Q10 injection, intraperitoneal injection of ADM 3 mg/kg was performed). The rats were sacrificed on the 10th day for histopathological examination and detection for the contents of malonaldehyde and SOD. The histopathological examination was performed by the steps of taking myocardial tissue from the left ventricular, fixing with 10% formaldehyde, slicing according to the conventional methods, and staining with HE.

[1] = ADM group, 3 mg/kg i.p. x5, n = 8
[2] = ADM group: ADM 3 mg/kg i.p. every other day, 5 times, n = 8

Compound: COc1cccc2c1C(=O)c1c(O)c3c(c(O)c1C2=O)C[C@@](O)(C(=O)CO)C[C@@H]3O[C@H]1C[C@H](N)[C@H](O)[C@H](C)O1 [ADM, adriamycin]
- alterations of rat electrocardiogram (ADM group (FIG. 2) compared with normal conditions): absent P-wave, flattened T-wave, obviously reduced ST-T segment, and decreased QRS waves
- myocardial MDA (nmol/mg prot) [1]: 8.99 ± 1.17^a nmol/mg prot
- myocardial SOD (U/mg prot) [1]: 330.02 ± 15.39^a U/mg prot
- Pathological classification of myocardial injury: number of rats in grade II [2]: 3
- Pathological classification of myocardial injury: number of rats in grade III [2]: 5
- myocardial tissue slice (stained with HE) (rats received intraperitoneal injection of ADM): seriously injured

Source: patent US20100189596A1, “COMPOSITE EMULSIFIER, AN EMULSION PREPARED FROM IT AND THE PREPARATION METHOD THEREOF” (SHENYANG PHARMACEUTICAL UNIVERSITY, priority 2007, published 2010)
